The values that follow come from US11795404B2, “Composition for removing sulfur-containing compounds” (KURARAY CO., LTD., priority 2018, dated 2023).

Where only a bound is given, the exact number is not on record here.

A short description of data set [1]: Sulfur-containing compound removal reaction, BuSH in liquid hydrocarbon (GC-SCD). Particulars: BuSH 50 μL (1000 ppm by volume) in kerosene 50 mL; aldehyde 250 μL; room temperature; reaction time 1 day. The protocol: In a 100 mL three-neck flask, 50 mL of kerosene was put and 50 μL (1000 ppm by volume, 0.46 mmol) of BuSH was added thereto to obtain a kerosene solution containing a sulfur-containing compound.
Next, 250 μL (2.59 mmol) of SAL and 250 μL (1.71 mmol) of DBU were added to the kerosene solution, and the solution was stirred at room temperature (20° C.±5° C., the same applies hereinafter) and at 800 rpm to perform a sulfur-containing compound removal reaction.
After 1-day reaction, the mercaptan concentration of the liquid phase in the three-neck flask was measured.
The mercaptan concentration of the liquid phase was measured using a calibration curve method by gas chromatography. The gas chromatography was performed under the following conditions.
Analyzer: GC-SCD (manufactured by Agilent Technologies Japan, Ltd.)
Detector: sulfur chemiluminescence detector (SCD)
Column: DB-sulfur SCD (length: 60 m, thickness: 4.2 μm, inner diameter: 0.32 mm) (manufactured by Agilent Technologies Japan, Ltd.)
Analytical conditions: inject. temp. 250° C., detect. temp. 250° C.
Temperature rise condition: 35° C. (kept for 3 minutes) (raised at 10° C./min)→250° C. (kept for 15 minutes)
Internal Standard Substance: diphenyl sulfide
A sulfur-containing compound removal reaction was performed in the same manner as in Example 3 except that crude oil was used in place of kerosene.

The conditions of data set [2]: conjugate acid in water at 25° C.; cited from earlier work.

`CC(C)=CC=O` [Comparative Example 1, Senecioaldehyde] displayed a Removal rate in data set [1] of less than 10%.

`C=CC=O` [Comparative Example 4, Acrolein] yielded a Removal rate in data set [1] of 15%.

Take `C1CCC2=NCCCN2CC1` [DBU, 1,8-Diazabicyclo[5.4.0]-7-undecene]: in data set [2], the pKa is 11.5.

Turning to `CN(C)CCN(C)CCN(C)C` [PMDETA, N,N,N′,N″,N″-Pentamethydiethylenetriamine], the pKa in data set [2] is reported as 9.1.
